Like-named read-outs stand apart in the source and are kept apart here. Each block holds one molecule with its values, some of them ahead of it.
Tests used:
[1] = system: HCC827 cells (EGFR-delE746_A750); test: CellTiter-Glo viability assay, HCC827; assay type: cell-based; conditions: Homo sapiens, read-out: EGFR CTG EC50 HCC827;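 note: luminescence from ATP content as a measure of metabolically active cells, in RPMI with 10% FBS, compound added as serial dilutions after 24 h of preculture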
EGFR-L858R/T790M [2] = molecular target: T1, EGFR-L858R/T790M (Homo sapiens, UniProt P00533, L858R/T790M); test: HTRF KinEASE-TK activity-based assay, EGFR-L858R/T790M; conditions: EGFR HTRF IC50 L858R/T790M, ATP at Km (4 µM), 30 min preincubation; mean ± SD of three independent measurements in duplicates
EGFR-wt [3] = molecular target: T2, EGFR-wt (Homo sapiens, UniProt P00533); test: HTRF KinEASE-TK activity-based assay, EGFR-wt; conditions: EGFR HTRF IC50 wt, ATP at Km (9.5 µM), 30 min preincubation; mean ± SD of three independent measurements in duplicates
[4] = Microsomal stability (phase I), mouse; assay type: in vitro ADME; conditions: mouse liver microsomes, up to 60 minutes, 37 °C
Procedure: (§1) Microsomal stability (phase I) assay.
(§2) Metabolic stability under oxidative conditions was measured in liver microsomes from different
(§3) time up to 50 minutes (HLM) or 60 minutes (MLM) at 37 °C. Based on the compound half-life t1/2,
(§4) the in vitro intrinsic clearance CLint was calculated. […]

EGFR-wt [5] = molecular target: T2, EGFR-wt; test: Kinetic characterization (Ki, kinact), EGFR-wt
[6] = system: A431 cells (EGFR wild type); test: CellTiter-Glo viability assay, A431; conditions: Homo sapiens, A-431, 96 h
[7] = system: H1975 cells (EGFR-L858R/T790M); test: CellTiter-Glo viability assay, H1975; conditions: Homo sapiens, NCI-H1975, 96 h
EGFR-L858R [8] = molecular target: T3, EGFR-L858R (Homo sapiens, UniProt P00533, L858R); test: Kinetic characterization (Ki, kinact), EGFR-L858R
EGFR-L858R [9] = molecular target: T3, EGFR-L858R; test: HTRF KinEASE-TK activity-based assay, EGFR-L858R
A549 cells (KRAS mutant) = test: CellTiter-Glo viability assay, A549; conditions: Homo sapiens, A549, 96 h, read-out: KRAS CTG EC50 A549
H358 cells (KRAS mutant) = test: CellTiter-Glo viability assay, H358; assay type: cell-based; conditions: Homo sapiens, read-out: KRAS CTG EC50 H358;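 note: viable cell number estimated from ATP-dependent luminescence following exposure to serially diluted inhibitor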
EGFR-L858R/T790M [10] = molecular target: T1, EGFR-L858R/T790M; test: Kinetic characterization (Ki, kinact), EGFR-L858R/T790M
[11] = system: EGFR and downstream cascade phosphorylation in H1975 cells; test: Western blot analysis in H1975 cells; assay type: cell-based; conditions: 1 h inhibitor then EGF stimulation
Procedure: and incubated at 37 °C and 5% CO2. On day 2 cells were starved over night with media containing 0.5% FBS to be incubated on day 3 for 1 h with EGFR inhibitors following an additional 30 min of EGF stimulation at 50 ng/mL. The media was discarded and cells were washed once with DPBS
1x. Using 100 μL per well of lysis buffer, cells were then scraped off and lysed while rotating (Stuart Scientific, Staffordshire, UK) for 1 h at 4 °C. […] Supernatant was transferred into new tube and protein concentrations were determined with the Bio-Rad Protein Assay (Bio-Rad Laboratories, Hercules, CA). […]
captured and quantified using a FUJI LAS3000 system with Science Lab 2001 ImageGauge 4.0 software (Fujifilm Medial Systems, Stamford CT, USA). […]
glycerol, 1 mM TCEP, pH 8) on ice for 1 h. We analyzed the aliquots by ESI-MS using an Thermo Fisher Scientific Dionex UltiMate 3000 HPLC system connected to a Thermo Fisher Scientific Velos Pro (2d ion trap). Therefore, 5 μL of sample was injected and separated using a Vydac 214TP C4 5 μm column (150 mm x 2.1 mm) starting at 20% of solvent B for 5 minutes followed by a gradient up to 90% of solvent B over 14 min with a flow rate of 210 μL/min with 0.1% TFA in water as solvent A and 0.1% TFA in MeCN as solvent B. A mass range of 700 to 2000 m/z was scanned and raw data was deconvoluted and analyzed with MagTran software (Z.Q. Zhang, A.G. […]

[12] = PAMPA (parallel artificial membrane permeability assay); assay type: in vitro ADME; conditions: pH 7.4, 500 µM, 16 hours
Procedure: masses and 0.02 Da for fragment ions. FDR was adjusted to 1% on peptide spectrum match […]
as §1
Metabolic stability under oxidative conditions was measured in liver microsomes from different species by LC/MS-based measuring of depletion of compound at a concentration of 3 µM over time up to 50 minutes (HLM) or 60 minutes (MLM) at 37 °C. Based on the compound half-life t1/2, the in vitro intrinsic clearance CLint was calculated.
Plasma stability was measured by LC/MS-based determination of the percentage of remaining compounds at a concentration of 5 µM after incubation in plasma obtained from different species […]
Assessment of plasma protein binding was measured by equilibrium dialysis by incubating plasma with the compound of interest at a concentration of 5 µM for 6 h at 37 °C followed by LC/MS-based determination of final compound concentrations.
PAMPA (Parallel artificial membrane permeability assay). […]
temperature in a wet chamber, the optical density of the solution in the receiver well was measured between 250 and 500 nm in intervals of 10 nm. The percent flux was calculated from […]

Plasma stability, mouse = assay type: in vitro ADME; conditions: 5 µM, 1 h, 37 °C
Caco-2 assay = assay type: in vitro ADME; conditions: human, Caco-2, 5 μM, pH 7.4, 2 hours
Procedure: For Caco-2 cell assay, a 10 mM DMSO stock of the compound was diluted to a final concentration of 5 μM in HBSS buffer pH 7.4 and incubated for 2 hours at 37 °C and 5% CO2 on a monolayer of Caco-2 cells (ATCC) that had been grown on a transwell membrane (Millipore, Schwalbach, Germany) for 21 days. The compound concentration was measured in the receiver as well as the donor well. Apparent permeability (Papp) from either the apical to basolateral direction or vice versa […]
is the donor drug concentration at t = 0, and dQ/dt is the amount of drug transported within the given time period of 2 hours. […]

[13] = Plasma protein binding, mouse; assay type: in vitro ADME; conditions: equilibrium dialysis, 37 °C
Procedure: (§5) Assessment of plasma protein binding was measured by equilibrium dialysis by incubating plasma
(§6) based determination of final compound concentrations. […]

[14] = Plasma protein binding, human; assay type: in vitro ADME; conditions: equilibrium dialysis, 37 °C
Procedure: as §5, §6

Plasma stability, human = assay type: in vitro ADME; conditions: 5 µM, 1 h, 37 °C
[15] = Microsomal stability (phase I), human; assay type: in vitro ADME; conditions: human liver microsomes, up to 50 minutes, 37 °C
Procedure: as §1, §2, §3, §4

T1 sequence (P00533 25-1210 T790M/L858R): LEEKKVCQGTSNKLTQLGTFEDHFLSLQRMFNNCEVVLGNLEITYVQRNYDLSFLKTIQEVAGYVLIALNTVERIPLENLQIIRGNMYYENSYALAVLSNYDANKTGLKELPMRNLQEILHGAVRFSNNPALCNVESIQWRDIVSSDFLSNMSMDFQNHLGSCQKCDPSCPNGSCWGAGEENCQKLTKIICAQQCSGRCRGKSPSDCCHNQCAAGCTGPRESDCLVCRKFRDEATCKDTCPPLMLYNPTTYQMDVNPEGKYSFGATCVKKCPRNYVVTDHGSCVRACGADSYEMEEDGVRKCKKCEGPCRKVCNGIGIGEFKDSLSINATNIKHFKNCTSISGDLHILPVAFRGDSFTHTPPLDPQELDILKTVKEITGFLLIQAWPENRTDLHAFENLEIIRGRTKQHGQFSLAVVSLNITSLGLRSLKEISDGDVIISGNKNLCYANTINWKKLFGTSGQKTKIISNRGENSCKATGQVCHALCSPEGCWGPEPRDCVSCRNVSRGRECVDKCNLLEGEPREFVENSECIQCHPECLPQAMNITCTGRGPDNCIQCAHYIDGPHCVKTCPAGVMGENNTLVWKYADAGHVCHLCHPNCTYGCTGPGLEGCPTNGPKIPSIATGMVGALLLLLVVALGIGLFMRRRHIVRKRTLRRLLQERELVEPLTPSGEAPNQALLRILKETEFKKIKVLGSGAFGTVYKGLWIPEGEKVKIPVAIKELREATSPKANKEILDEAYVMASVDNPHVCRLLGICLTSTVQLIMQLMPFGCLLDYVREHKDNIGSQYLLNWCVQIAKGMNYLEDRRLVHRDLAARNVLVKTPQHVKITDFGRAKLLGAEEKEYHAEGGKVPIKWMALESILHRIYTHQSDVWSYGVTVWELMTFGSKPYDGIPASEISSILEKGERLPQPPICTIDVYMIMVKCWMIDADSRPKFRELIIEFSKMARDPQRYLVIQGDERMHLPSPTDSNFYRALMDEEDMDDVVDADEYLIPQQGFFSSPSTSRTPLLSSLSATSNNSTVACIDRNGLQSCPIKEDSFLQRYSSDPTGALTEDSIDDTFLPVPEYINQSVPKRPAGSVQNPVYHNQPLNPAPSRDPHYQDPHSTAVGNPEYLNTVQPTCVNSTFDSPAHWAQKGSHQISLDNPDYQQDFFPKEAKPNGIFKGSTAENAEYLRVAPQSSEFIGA
T3 sequence (P00533 25-1210 L858R): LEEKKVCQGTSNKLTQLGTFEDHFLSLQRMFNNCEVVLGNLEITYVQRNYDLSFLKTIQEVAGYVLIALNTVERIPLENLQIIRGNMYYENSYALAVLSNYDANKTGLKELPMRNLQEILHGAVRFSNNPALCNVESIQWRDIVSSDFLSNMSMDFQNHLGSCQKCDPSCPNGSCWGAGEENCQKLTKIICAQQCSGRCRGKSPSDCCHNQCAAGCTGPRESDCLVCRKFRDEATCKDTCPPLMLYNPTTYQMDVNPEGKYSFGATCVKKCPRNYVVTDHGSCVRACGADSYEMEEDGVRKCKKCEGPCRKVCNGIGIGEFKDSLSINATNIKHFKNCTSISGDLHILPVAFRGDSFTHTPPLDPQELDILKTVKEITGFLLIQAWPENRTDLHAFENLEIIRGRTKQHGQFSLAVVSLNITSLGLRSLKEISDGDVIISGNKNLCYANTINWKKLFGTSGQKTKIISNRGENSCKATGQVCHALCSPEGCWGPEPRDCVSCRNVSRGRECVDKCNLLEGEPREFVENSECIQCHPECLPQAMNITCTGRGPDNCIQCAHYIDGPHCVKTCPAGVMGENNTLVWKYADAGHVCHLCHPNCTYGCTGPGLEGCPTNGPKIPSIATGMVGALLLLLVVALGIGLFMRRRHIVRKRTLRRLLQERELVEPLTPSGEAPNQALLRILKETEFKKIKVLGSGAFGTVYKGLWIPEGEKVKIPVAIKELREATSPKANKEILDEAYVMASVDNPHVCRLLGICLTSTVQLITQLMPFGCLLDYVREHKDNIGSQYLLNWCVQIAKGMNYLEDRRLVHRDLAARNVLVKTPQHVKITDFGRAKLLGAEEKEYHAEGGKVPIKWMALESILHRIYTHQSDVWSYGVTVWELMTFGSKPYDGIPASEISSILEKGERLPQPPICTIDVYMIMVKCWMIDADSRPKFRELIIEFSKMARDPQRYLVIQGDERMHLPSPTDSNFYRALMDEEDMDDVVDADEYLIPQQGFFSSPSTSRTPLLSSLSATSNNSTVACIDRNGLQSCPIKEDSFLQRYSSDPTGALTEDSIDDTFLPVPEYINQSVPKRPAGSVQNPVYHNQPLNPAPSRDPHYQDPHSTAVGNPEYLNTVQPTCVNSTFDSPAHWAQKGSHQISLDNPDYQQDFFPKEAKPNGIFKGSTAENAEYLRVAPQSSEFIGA
T2 sequence (P00533 25-1210): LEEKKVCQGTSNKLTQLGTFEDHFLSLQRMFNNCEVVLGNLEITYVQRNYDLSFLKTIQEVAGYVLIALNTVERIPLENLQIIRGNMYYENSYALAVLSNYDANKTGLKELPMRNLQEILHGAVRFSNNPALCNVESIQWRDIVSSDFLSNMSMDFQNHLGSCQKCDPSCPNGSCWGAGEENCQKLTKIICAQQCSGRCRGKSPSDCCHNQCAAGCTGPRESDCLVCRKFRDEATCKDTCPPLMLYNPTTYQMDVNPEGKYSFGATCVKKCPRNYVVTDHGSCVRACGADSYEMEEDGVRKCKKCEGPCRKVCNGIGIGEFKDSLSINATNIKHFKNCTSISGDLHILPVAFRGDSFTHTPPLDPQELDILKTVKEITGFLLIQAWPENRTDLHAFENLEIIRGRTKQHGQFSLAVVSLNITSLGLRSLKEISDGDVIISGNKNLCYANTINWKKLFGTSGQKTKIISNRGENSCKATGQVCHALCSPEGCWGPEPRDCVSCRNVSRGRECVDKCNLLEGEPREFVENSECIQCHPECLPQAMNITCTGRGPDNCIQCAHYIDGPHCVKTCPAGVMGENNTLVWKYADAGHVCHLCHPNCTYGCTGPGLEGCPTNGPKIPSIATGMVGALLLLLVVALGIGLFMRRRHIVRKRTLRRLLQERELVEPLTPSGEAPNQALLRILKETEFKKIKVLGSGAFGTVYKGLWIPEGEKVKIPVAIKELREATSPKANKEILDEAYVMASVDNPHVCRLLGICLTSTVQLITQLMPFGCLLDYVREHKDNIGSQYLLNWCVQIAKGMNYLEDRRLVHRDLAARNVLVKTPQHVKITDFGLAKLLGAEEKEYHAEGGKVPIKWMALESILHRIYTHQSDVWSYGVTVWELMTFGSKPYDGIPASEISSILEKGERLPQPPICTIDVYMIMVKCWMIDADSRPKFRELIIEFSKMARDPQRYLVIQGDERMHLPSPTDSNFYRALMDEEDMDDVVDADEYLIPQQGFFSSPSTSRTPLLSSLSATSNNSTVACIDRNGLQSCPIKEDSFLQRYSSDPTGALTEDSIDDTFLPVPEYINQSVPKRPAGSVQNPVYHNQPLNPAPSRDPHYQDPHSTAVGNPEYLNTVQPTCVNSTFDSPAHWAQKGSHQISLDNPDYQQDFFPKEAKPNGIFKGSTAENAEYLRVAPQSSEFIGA

EC50 ([1]; HCC827, 96 hours, CellTiter-Glo): 67 ± 7 nM
IC50 (EGFR-L858R/T790M [2]): 1 ± 0.3 nM
IC50 (EGFR-wt [3]): 1 ± 0.1 nM
microsomal CLint at 3 µM [4]: 8 µL/min/mg
Ki (EGFR-wt [5]): 10 ± 1 nM
kinact (EGFR-wt [5]): 0.00167 s⁻¹
kinact/KI (EGFR-wt [5]): 160000 ± 60000 M⁻¹ s⁻¹
EC50 ([6]; read-out: EGFR CTG EC50 A431, A431, 96 hours, CellTiter-Glo): 1410 ± 917 nM
EC50 ([7]; read-out: EGFR CTG EC50 H1975, H1975, 96 hours, CellTiter-Glo): 65 ± 11 nM
Ki (EGFR-L858R [8]): 10 ± 1 nM
kinact (EGFR-L858R [8]): 0.00317 s⁻¹
kinact/KI (EGFR-L858R [8]): 310000 ± 110000 M⁻¹ s⁻¹
IC50 (EGFR-L858R [9]): 0.4 nM
EC50 (A549 cells (KRAS mutant)): 5.72 ± 0.24 µM
EC50 (H358 cells (KRAS mutant); NCI-H358, H358, 96 hours, CellTiter-Glo): 9.39 ± 3.38 µM
Ki (EGFR-L858R/T790M [10]): 15 ± 3 nM
kinact (EGFR-L858R/T790M [10]): 0.00433 s⁻¹
kinact/KI (EGFR-L858R/T790M [10]): 300000 ± 90000 M⁻¹ s⁻¹
SMILES: C=CC(=O)Nc1cccc(-c2c(-c3ccc(N4CCN(C)CC4)cc3)[nH]c3ncn(C(C)C)c(=O)c23)c1 [Compound 29g]
concentration at which phosphorylation of EGFR and downstream proteins was reduced/inhibited [11]: around 100 nM

SMILES: C=CC(=O)Nc1cc(Nc2nccc(-c3cn(C)c4ccccc34)n2)c(OC)cc1N(C)CCN(C)C [Osimertinib, osimertinib, reference compound]
EC50 ([1]; HCC827, 96 h): < 14 nM
microsomal CLint at 3 µM [4]: 60 µL/min/mg
PAMPA flux [12]: 88%
EC50 ([7]; read-out: EGFR CTG EC50 H1975): 16 ± 5 nM
Plasma stability (Plasma stability, mouse): 75 %remain
Papp A→B at 2 h, 5 μM (Caco-2 assay; apical to basolateral, read-out: Caco-2: Papp AB): 5 ×10⁻⁶ cm/s
Papp B→A at 2 h, 5 μM (Caco-2 assay; basolateral to apical, read-out: Caco-2: Papp BA): 6.8 ×10⁻⁶ cm/s
EC50 (A549 cells (KRAS mutant)): 1.83 ± 0.259 µM
fraction unbound at 6 h, 5 µM [13]: 0.024
fraction unbound at 6 h, 5 µM [14]: 0.029
EC50 (H358 cells (KRAS mutant); NCI-H358, 96 h): 2.83 ± 0.362 µM
Plasma stability (Plasma stability, human): 78 %remain
microsomal CLint at 3 µM [15]: 4.1 µL/min/mg

From paper PMC6886544
